The target of the assay is NHE1 (Rattus norvegicus, UniProt P26431). The experiment in a line: BCECF intracellular pH recovery after ammonium prepulse. Type of assay: cell-based.

Structures are written as SMILES.

Chain of NHE1 (P26431 whole entry): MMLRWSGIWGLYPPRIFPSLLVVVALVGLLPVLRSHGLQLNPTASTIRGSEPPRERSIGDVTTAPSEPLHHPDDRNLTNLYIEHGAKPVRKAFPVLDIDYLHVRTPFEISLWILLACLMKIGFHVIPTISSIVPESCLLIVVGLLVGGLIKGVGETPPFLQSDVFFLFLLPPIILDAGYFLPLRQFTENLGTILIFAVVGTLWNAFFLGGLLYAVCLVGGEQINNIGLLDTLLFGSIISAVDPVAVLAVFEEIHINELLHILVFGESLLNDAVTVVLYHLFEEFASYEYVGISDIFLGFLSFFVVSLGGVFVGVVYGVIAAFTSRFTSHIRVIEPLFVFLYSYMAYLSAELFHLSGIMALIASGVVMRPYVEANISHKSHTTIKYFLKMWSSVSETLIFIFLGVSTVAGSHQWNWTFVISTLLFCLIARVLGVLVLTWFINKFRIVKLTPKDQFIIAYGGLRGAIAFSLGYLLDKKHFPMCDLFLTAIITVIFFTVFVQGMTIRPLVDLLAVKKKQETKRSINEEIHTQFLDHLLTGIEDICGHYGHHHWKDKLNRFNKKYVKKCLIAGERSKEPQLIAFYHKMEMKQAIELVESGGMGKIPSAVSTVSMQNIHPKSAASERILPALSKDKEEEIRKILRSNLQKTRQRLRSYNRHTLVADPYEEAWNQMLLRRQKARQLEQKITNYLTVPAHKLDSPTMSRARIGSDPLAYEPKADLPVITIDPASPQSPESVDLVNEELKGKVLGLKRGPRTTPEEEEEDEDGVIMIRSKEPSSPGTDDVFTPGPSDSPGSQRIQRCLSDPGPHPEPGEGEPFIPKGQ

By IC50 is commonly meant the midpoint of a concentration-inhibition curve. Low readings indicate higher potency, high ones lower potency. In turn, `CC(C)c1ccc(C(=O)NC(=N)N)cc1S(C)(=O)=O` [cariporide] had an IC50 of 1.1 µM.

Source of the values: publication PMC4006130 (Pflugers Archiv, 2013).
